From ChEMBL document CHEMBL5523758, “Discovery of 2-Methyl-5-(1H-pyrazol-4-yl)pyridines and Related Heterocycles as Promising M4 mAChR Positive Allosteric Modulators for the Treatment of Neurocognitive Disorders” (J Med Chem, 2024)

Tests used:
[1] = target: T1, Muscarinic acetylcholine receptor M4 (Homo sapiens) (UniProt P08173); details: Flp-In-CHO, dose 10.0 µM, time 8.0 min
T1 sequence (whole entry): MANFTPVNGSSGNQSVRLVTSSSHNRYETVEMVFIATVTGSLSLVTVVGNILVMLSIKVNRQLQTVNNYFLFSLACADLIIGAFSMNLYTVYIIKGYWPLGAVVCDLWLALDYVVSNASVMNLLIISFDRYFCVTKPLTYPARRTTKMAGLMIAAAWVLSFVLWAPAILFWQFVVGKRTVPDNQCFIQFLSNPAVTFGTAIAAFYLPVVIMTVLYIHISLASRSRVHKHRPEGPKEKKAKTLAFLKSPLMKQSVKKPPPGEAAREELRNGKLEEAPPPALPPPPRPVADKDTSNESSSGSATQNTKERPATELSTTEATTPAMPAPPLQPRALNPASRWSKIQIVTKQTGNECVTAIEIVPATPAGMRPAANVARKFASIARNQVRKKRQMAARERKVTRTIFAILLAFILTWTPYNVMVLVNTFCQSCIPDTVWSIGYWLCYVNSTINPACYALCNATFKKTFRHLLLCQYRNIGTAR

[2] = target: T1, Muscarinic acetylcholine receptor M4 (Homo sapiens); details: Flp-In-CHO
Description: Positive allosteric modulation at human M4 mAChR stably expressed in Flp-In-CHO cells co-transfected with CAMYEL biosensor assessed as ACh-induced CAMYEL activation by measuring log of operational efficacy by BRET assay

[3] = target: T1, Muscarinic acetylcholine receptor M4 (Homo sapiens); details: Flp-In-CHO, filed as positive allosteric modulator, time 8.0 min
[4] = target: T1, Muscarinic acetylcholine receptor M4 (Homo sapiens); details: Flp-In-CHO, filed as positive allosteric modulator
Description: Positive allosteric modulation at human M4 mAChR stably expressed in Flp-In-CHO cells co-transfected with CAMYEL biosensor assessed as ACh-induced CAMYEL activation by measuring log of functional co-operativity by BRET assay

[5] = target: T1, Muscarinic acetylcholine receptor M4 (Homo sapiens); details: Flp-In-CHO, filed as positive allosteric modulator, time 8.0 min; remark: listed apart in the source
[6] = target: T1, Muscarinic acetylcholine receptor M4 (Homo sapiens); details: Flp-In-CHO, filed as positive allosteric modulator, time 8.0 min; remark: listed apart in the source
[7] = target: T1, Muscarinic acetylcholine receptor M4 (Homo sapiens); details: Flp-In-CHO, time 5.0 min
[8] = target: T1, Muscarinic acetylcholine receptor M4 (Homo sapiens); details: Flp-In-CHO, filed as positive allosteric modulator, time 5.0 min
[9] = filed as positive allosteric modulator

| SMILES | deltapEC50 [1] | log(activity) [2] | log(activity) [3] | log(activity) [4] | log(activity) [5] | pKb [6] | log(activity) [7] | log(activity) [2, 9] | log(activity) [8] | log(activity) [7, 9] |
| --- | --- | --- | --- | --- | --- | --- | --- | --- | --- | --- |
| COC(=O)CCCCn1cc(-c2ccc(C)nc2-c2ccc3c(c2)C(=O)N(C)C3)cn1 | > 0.4 | – | – | – | – | – | – | – | – | – |
| Cc1ccc(-c2cnn(CCCC(=O)O)c2)c(-c2ccc3c(c2)C(=O)N(C)C3)n1 | > 0.4 | – | – | – | – | – | – | – | – | – |
| CN1Cc2ccc(-c3nc4ccccc4cc3-c3cnn(CC4CCCC4)c3)cc2C1=O | > 0.4 | – | 2.01 | 1.99 | 1.56 | 4.53 | -0.28 | 0.84 | 1.92 | – |
| Cc1ccc(-c2cnn(CC3CCCC3)c2)c(-c2ccc3c(c2)C(=O)NC3)n1 | – | – | 2.15 | 1.07 | 1.72 | 5.65 | – | 0.5 | – | – |
| Cc1ccc(-c2cnn(CC3CCCC3)c2)c(-c2ccc3c(c2)C(=O)N(C)C3)n1 | – | – | 1.74 | 0.53 | 1.58 | 5.86 | – | 0.25 | 1.89 | 0.02 |
| Cc1ccc(-c2cnn(CCC(N)=O)c2)c(-c2ccc3c(c2)C(=O)N(C)C3)n1 | > 0.4 | – | – | – | – | – | – | – | – | – |
| Cc1ccc(-c2cnn(CCC#N)c2)c(-c2ccc3c(c2)C(=O)N(C)C3)n1 | > 0.4 | -0.64 | 1.49 | 0.84 | 0.88 | 4.74 | – | – | – | – |
| Cc1ccc(-c2cnn(CCCCC(=O)O)c2)c(-c2ccc3c(c2)C(=O)N(C)C3)n1 | > 0.4 | – | – | – | – | – | – | – | – | – |

Results, then the compound that gave them:

| deltapEC50 [1] | log(activity) [2] | log(activity) [3] | log(activity) [4] | log(activity) [5] | pKb [6] | log(activity) [7] | log(activity) [2, 9] | log(activity) [8] | log(activity) [7, 9] | SMILES |
| --- | --- | --- | --- | --- | --- | --- | --- | --- | --- | --- |
| – | -0.47 | 1.56 | 0.44 | 0.85 | 4.79 | – | – | – | – | Cc1ccc(-c2cnn(CCCN)c2)c(-c2ccc3c(c2)C(=O)N(C)C3)n1 |
| – | – | 2.53 | 2.12 | 2.17 | 4.73 | – | 1.17 | 2.3 | 0.08 | Cc1cnc(-c2ccc3c(c2)C(=O)N(C)C3)c(-c2cnn(CC3CCCC3)c2)c1 |
| – | – | 1.94 | 1.04 | 1.05 | 4.73 | – | 0.18 | – | – | COC(=O)CCCn1cc(-c2ccc(C)nc2-c2ccc3c(c2)C(=O)N(C)C3)cn1 |
| – | – | 1.94 | 1 | 1.55 | 5.26 | – | 0.48 | – | – | Cc1ccc(-c2cnn(CC3CCCC3)c2)c(-c2ccc3c(c2)C(=O)N(CC#N)C3)n1 |
| > 0.4 | -0.28 | 1.46 | 1.08 | 0.73 | 4.57 | – | – | – | – | COC(=O)CCn1cc(-c2ccc(C)nc2-c2ccc3c(c2)C(=O)N(C)C3)cn1 |
| – | – | 1.93 | 1.03 | 1.16 | 4.55 | – | 0.28 | – | – | Cc1ccc(-c2cnn(CCCCC#N)c2)c(-c2ccc3c(c2)C(=O)N(C)C3)n1 |
| – | – | 1.92 | 0.74 | 1.3 | 4.71 | – | 0.1 | – | – | Cc1ncc(-c2cnn(CC3CCCC3)c2)c(-c2ccc3c(c2)C(=O)N(C)C3)n1 |
